A short description of experiment [1]: NIH-3T3 fibroblast cytotoxicity, dose response, cytotoxicity control, cell-based, fluorescence, Alamar Blue, secondary assay (AID 2327).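 Also: NIH-3T3 mouse fibroblasts cultured with fluconazole at 8 µg/mL.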 The class given is functional. On the technique in general: Resazurin is reduced to fluorescent resorufin, in cell work by metabolically active cells.
A short description of experiment [2]: C. albicans growth with fluconazole, confirmation, fluorescence, retest (AID 2467). The class given is functional, cell-based.
A short description of experiment [3]: nonselective inhibitors of cellular cAMP signaling, dose response, counter-screen for MC4R biased antagonist project, cell-based, TR-FRET cAMP detection (AID 602305).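 Also: U2OS cells stimulated with forskolin near its EC80 as the cAMP inducer; potency is for inhibition of forskolin-stimulated cAMP signaling.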 The experiment is classed as functional. A general note: The purpose of a counterscreen is to sort out artefacts and off-target activity.
In experiment [4] the target is Protein-tyrosine kinase 2-beta (Homo sapiens, UniProt Q14289).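 Also: potency of inhibitors of PYK2 kinase phosphorylation of poly-GT substrate.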
Protein-tyrosine kinase 2-beta, sequence (Q14289 whole entry): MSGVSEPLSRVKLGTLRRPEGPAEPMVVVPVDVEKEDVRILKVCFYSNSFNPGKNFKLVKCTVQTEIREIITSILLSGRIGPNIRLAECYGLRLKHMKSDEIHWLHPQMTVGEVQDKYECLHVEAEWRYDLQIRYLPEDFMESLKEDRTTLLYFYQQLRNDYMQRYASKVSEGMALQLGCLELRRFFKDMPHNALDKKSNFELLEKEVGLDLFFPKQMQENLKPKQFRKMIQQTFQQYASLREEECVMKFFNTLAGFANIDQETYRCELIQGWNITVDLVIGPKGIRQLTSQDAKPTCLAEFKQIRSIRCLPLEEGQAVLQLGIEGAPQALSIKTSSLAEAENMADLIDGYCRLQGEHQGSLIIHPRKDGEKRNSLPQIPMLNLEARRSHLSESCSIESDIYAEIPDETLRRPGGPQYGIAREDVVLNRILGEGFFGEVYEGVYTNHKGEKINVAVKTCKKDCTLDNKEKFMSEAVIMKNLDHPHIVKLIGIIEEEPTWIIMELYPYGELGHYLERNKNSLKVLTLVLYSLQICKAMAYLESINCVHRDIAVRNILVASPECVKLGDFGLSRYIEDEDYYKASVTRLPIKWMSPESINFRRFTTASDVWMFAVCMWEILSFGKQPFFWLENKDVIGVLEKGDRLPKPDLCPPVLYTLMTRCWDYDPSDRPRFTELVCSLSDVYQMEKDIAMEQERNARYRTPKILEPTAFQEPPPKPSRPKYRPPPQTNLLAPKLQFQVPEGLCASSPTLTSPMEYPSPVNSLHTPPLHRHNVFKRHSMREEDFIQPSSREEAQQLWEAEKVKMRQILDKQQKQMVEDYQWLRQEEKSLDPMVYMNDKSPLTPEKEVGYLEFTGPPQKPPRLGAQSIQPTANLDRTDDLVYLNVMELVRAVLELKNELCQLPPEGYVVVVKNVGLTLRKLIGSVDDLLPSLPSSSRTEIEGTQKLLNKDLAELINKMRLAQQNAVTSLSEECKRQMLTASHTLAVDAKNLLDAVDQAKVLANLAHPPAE
Another experiment deals with Melanocortin receptor 4 (Homo sapiens, UniProt P32245). Description: MC4R antagonist potency on cAMP, dose response, cell-based, TR-FRET, biased antagonists (AID 602298).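 Also: antagonist potency against agonist-stimulated cAMP production.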 The class given is functional.
Melanocortin receptor 4, sequence (P32245 whole entry): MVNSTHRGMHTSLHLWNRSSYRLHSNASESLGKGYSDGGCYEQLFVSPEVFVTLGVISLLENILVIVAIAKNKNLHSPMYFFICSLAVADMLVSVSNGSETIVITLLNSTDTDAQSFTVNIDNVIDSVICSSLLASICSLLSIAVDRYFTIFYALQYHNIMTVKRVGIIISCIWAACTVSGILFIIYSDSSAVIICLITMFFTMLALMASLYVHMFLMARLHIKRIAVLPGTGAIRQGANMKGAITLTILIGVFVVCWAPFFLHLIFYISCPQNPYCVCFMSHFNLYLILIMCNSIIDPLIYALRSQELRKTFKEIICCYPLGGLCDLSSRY
The target in a further experiment is Nonstructural protein 1 (Influenza A virus, UniProt Q194T2). The class given is functional, Influenza A virus (A/California/07/2009(H1N1)).
Nonstructural protein 1, sequence (Q194T2 whole entry): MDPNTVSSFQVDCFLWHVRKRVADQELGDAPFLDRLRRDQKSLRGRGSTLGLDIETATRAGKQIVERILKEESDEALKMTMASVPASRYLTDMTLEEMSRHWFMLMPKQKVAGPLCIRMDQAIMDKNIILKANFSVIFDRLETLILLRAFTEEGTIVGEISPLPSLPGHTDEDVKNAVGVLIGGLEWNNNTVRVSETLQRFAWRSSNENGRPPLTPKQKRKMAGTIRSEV
For a further experiment, the target named is Cytochrome P450 2C9 (Homo sapiens, UniProt P11712). As to conditions: Potency.
Cytochrome P450 2C9, sequence (P11712 whole entry): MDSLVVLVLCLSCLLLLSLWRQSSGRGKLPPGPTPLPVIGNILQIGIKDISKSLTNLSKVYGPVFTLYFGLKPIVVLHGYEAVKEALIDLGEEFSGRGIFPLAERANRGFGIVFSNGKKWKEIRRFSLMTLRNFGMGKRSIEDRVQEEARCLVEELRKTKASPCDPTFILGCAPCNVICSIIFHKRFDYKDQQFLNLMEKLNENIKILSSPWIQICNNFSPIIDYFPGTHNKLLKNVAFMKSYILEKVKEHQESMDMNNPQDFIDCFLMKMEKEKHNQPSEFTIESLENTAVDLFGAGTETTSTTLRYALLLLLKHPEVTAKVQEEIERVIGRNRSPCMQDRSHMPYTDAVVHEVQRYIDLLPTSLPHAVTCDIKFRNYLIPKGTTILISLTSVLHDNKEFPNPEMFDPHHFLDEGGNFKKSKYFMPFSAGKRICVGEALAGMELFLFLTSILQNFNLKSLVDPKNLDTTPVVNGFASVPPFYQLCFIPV
Experiment [5] has as its system Streptococcus. Description: Group A Streptococcus viability loss, dose response, counter-screen for streptokinase expression inhibitor project, luminescence, BacTiterGlo (AID 1915).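 Also: potency for reduction of bacterial viability or growth.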 The class given is functional, organism-based.
For a further experiment, the target named is T1, Streptokinase A (Streptococcus pyogenes serotype M1, UniProt P10520).
T1 sequence (P10520 whole entry): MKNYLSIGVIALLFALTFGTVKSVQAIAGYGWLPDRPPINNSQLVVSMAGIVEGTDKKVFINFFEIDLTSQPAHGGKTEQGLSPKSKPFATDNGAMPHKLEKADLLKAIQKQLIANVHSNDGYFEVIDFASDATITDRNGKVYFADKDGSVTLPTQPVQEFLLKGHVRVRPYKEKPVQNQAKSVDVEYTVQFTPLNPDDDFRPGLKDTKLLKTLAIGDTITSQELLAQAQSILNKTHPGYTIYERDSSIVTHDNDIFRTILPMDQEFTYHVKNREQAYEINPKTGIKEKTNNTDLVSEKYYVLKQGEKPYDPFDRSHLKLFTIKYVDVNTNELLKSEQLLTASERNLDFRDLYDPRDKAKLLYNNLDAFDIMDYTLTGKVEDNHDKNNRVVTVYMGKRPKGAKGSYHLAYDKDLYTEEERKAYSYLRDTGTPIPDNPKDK
Put plainly: S. pyogenes streptokinase expression inhibitors, potency, dose response, plasminogen activation absorbance, OD405 (AID 1914).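 Also: secreted streptokinase activity via plasminogen activation per viability signal from cell pellet.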 The class given is functional, Streptococcus pyogenes M1 GAS.

Experiment [6] deals with Streptococcus. Description: Luminescence Microorganism-Based Dose Response Follow up to Identify Compounds Cytotoxic to Streptococcus. [Related pubchem assays: 1677 (Project Summary), 1915, 1914, 1902 (Retest at Dose), 1900 (Counter Screen), 1662 (Primary HTS)]. The experiment is classed as functional, organism-based.
Experiment [7] is described as follows: cytotoxicity toward DRD oncogenic fibroblasts, dose response, cell-based, non-viral oncogenic, luminescence (AID 1934). The experiment is classed as functional. As to conditions: Homo sapiens.
The nature of experiment [8]: inhibitors of SNCA 5'UTR-driven translation, confirmation, luminescence, H4 neuroglioblastoma cells, dose confirmation (AID 2454).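 Also: H4 neuroglioblastoma cells carrying an alpha-synuclein 5'UTR luciferase reporter; potency for inhibition of the luciferase signal.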 The class given is functional, cell-based.
Experiment [9] can be described thus: inhibitors of SNCA 5'UTR-driven reporter translation, confirmation, H4 neuroglioma cells, luminescence (AID 1988). The experiment is classed as functional, cell-based.
The next experiment in a line: cells. The experiment is classed as functional, cell-based.
The nature of experiment [10]: non-specific cell cytotoxicity, dose response, cytotoxicity control for PAX8 inhibitor project, plate reader, dry powder samples (AID 743021). The class given is functional, cell-based.
A short description of experiment [11]: cytotoxicity in HEK-293T cells, dose response, cytotoxicity control for TCR NF-kB inhibitor project, luminescence, T-cell screen hits (AID 489026).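 Also: cells exposed to compound about 14 hours before the viability readout.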 The experiment is classed as functional, cell-based.
The subject of experiment [12] is BJ. Put plainly: cytotoxicity toward Ras-transformed BJeLR fibroblasts, dose response, cell-based, alamar blue fluorescence, cherrypicked samples (AID 2631).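 Also: confirmatory dose-response assay in RAS-dependent BJ fibroblasts engineered with TERT, LT and ST, with cytotoxicity read by fluorescence.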 The experiment is classed as functional. As to conditions: Homo sapiens.
The subject of experiment [13] is BJ. Put plainly: cytotoxicity toward BJ-TERT fibroblasts, dose response, cell-based, RAS-independent, luminescence (AID 1933). The experiment is classed as functional. To be noted: Homo sapiens.
Experiment [14] in a line: luciferase reporter signal reduction – luminescence, H4-C neuroglioblastoma cells, dose response (AID 2458).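 Also: H4 neuroglioblastoma cells stably carrying a luciferase reporter gene fusion.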 The class given is functional, cell-based. (In general: A reporter such as luciferase makes a cellular process visible.)
The nature of experiment [15]: Luminescence Cell-Based Dose Response HTS to Identify Inhibitors of 5'UTR Stem-Loop Driven Prion Protein mRNA Translation in H4 Neuroglioblastoma Cells. [Related pubchem assays: 1827 (Project Summary), 1813 (Primary HTS)]. The class given is functional.
A further experiment addresses Paired box protein Pax-8 (Homo sapiens, UniProt Q06710). Put plainly: inhibitors of PAX8-driven TPO luciferase reporter, dose response, RMG-I cells, cherry-pick (AID 687027).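 Also: luciferase reporter driven by Pax8 target thyroperoxidase promoter measured by SteadyGlo luminescence.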 The class given is functional, cell-based.
A short description of experiment [16]: Luminescence-based counterscreen assay for KLF5 inhibitors: dose response cell-based high throughput screening assay to identify cytotoxic compounds using the IEC-6 intestinal epithelial cell line. [Related pubchem assays: 1700 (Primary screen.), 1834 (Confirmation screen.), 1858 (Summary AID.), 1905 (Counterscreen.)]. The experiment is classed as functional.

In experiment [17] the test system is Vero. Put plainly: cells. The class given is functional. As to conditions: Chlorocebus sabaeus.
For experiment [18], the system named is BJ. Description: cytotoxicity toward BJ-TERT-LT-ST fibroblasts, dose response, cell-based, RAS-independent, luminescence (AID 1935).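 Also: BJ fibroblasts immortalized with TERT plus LT and ST oncogenes.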 As to conditions: Homo sapiens. The experiment is classed as functional.
For experiment [19], the system named is BJ. Description: cells. As to conditions: Homo sapiens. The experiment is classed as functional, cell-based.
For experiment [20], the system named is Vero. Put plainly: cells. The class given is functional, cell-based. As to conditions: Chlorocebus sabaeus.
The nature of experiment [21]: inhibitors of firefly luciferase expression or activity, dose response, H4 neuroglioma cells, luminescence (AID 1990). The class given is functional, cell-based.
The test system of experiment [22] is Vero. Put plainly: host cell cytotoxicity of antiviral hits, dose response, cytotoxicity control for West Nile virus antiviral project, secondary assay (AID 1650). The class given is functional. As to conditions: Chlorocebus sabaeus.
Experiment [23] has as its target T2, RNA-binding protein pos-1 (Caenorhabditis elegans, UniProt G5EF15).
T2 sequence (G5EF15 whole entry): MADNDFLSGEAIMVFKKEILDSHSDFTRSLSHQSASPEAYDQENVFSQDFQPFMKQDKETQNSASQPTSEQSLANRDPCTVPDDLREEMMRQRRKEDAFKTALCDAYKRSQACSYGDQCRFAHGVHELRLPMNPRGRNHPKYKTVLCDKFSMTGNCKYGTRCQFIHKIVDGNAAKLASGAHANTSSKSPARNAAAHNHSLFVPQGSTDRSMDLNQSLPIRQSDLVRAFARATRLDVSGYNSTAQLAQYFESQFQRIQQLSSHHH
Put plainly: inhibitors of POS-1/mex-3 RNA binding, dose response, biochemical, fluorescence polarization (AID 1964).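 Also: purified POS-1 fused to maltose binding protein made in E. coli; potency of compounds blocking POS-1 binding to fluorescent RNA.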

A further experiment concerns the target NS3 (Hepatitis C virus, UniProt A3EZJ3). Description: PubChem AID 2173. On the set-up: species or system Hepacivirus hominis.
Experiment [24] deals with T3, Zinc finger protein mex-5 (Caenorhabditis elegans, UniProt Q9XUB2).
T3 sequence (Q9XUB2 whole entry): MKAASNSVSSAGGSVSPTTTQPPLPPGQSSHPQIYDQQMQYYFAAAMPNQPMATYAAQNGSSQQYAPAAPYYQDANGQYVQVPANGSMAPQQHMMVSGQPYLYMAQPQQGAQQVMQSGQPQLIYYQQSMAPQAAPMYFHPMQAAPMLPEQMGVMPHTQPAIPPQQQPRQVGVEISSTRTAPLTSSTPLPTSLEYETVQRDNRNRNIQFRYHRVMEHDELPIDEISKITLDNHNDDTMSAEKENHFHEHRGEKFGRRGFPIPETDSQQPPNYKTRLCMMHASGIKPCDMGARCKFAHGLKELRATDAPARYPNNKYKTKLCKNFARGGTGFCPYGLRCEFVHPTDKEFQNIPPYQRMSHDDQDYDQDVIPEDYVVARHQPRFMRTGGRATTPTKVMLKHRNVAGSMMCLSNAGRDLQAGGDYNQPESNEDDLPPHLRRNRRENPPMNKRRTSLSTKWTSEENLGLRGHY
Put plainly: MEX-5/TCR-2 RNA interaction inhibitors, dose response, biochemical, C. elegans, fluorescence polarization (AID 1960).

For experiment [25], the target named is T4, Polyadenylate-binding protein 1 (Homo sapiens, UniProt P11940). Description: PABP1 MLLE–PAM2 binding inhibitor potency, dose response, biochemical, fluorescence polarization, FITC-PAM2 peptide (AID 602259). The experiment is classed as functional. To be noted: read-out: IC50_Mean.
T4 sequence (P11940 whole entry): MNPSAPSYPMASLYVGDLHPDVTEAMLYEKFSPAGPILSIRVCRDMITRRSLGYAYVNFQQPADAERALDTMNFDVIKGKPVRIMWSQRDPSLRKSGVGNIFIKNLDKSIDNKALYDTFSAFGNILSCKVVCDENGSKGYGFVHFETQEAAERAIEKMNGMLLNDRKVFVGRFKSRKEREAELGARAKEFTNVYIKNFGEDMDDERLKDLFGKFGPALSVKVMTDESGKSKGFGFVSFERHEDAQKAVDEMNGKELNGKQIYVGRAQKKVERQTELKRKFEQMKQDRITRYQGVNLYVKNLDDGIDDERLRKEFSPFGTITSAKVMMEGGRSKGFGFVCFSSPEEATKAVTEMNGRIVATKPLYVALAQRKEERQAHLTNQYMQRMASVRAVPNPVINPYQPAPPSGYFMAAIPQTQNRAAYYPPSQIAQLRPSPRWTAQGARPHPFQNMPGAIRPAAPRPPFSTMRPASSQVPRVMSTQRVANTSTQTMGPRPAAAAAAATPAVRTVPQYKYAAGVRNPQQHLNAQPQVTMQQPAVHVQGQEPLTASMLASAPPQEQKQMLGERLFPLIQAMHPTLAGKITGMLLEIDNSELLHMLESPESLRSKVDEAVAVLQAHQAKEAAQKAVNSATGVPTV
Experiment [26] concerns the target T4, Polyadenylate-binding protein 1. Description: PABP1 MLLE–PAM2 interaction inhibitors, dose response, miRNA deadenylation inhibitor project, biochemical, fluorescence polarization, Cy5-PAM2 peptide, secondary (AID 602260). The class given is functional. To be noted: read-out: IC50_Mean.
The target in another experiment is T5, Estrogen receptor (Homo sapiens, UniProt P03372).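 Also: potency for inhibiting coactivator peptide recruitment to the receptor.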
T5 sequence (P03372 whole entry): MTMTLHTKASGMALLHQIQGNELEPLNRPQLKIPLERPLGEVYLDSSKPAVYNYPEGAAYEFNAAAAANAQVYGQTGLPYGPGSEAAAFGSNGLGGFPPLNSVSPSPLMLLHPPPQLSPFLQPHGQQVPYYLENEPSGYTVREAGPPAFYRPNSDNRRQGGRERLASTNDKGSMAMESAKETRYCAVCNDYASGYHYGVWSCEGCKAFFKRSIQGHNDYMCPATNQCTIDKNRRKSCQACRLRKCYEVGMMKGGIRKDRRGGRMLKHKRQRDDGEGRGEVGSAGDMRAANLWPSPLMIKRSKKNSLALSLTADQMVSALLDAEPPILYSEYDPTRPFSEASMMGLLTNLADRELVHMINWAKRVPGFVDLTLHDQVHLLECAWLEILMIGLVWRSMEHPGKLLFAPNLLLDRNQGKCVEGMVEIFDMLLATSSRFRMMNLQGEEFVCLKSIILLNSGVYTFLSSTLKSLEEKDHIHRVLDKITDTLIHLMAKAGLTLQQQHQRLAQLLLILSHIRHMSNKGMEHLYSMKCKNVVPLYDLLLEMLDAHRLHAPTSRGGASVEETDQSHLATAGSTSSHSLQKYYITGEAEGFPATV

Experimental findings from ChEMBL document CHEMBL1201862, “PubChem BioAssay data set” (2004) are described below.

Calls of active or inactive are those of the source. Rule as the data show it, for most assays here: actives have a measured EC50 and inactives only a lower limit. Bounds are passed on as bounds.

Paired box protein Pax-8, sequence (Q06710 whole entry): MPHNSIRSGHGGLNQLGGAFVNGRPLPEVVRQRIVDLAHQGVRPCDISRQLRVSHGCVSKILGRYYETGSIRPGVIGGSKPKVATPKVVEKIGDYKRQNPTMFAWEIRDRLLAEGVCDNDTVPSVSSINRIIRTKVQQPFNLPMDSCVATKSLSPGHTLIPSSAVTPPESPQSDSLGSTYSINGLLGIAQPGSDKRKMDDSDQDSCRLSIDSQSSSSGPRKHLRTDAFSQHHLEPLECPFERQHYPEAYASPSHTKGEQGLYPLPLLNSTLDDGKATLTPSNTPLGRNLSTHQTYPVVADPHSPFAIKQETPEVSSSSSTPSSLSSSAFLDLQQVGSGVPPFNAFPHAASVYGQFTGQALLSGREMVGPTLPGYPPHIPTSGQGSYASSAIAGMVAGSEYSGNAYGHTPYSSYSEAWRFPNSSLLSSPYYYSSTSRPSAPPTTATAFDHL
NS3, sequence (A3EZJ3 whole entry): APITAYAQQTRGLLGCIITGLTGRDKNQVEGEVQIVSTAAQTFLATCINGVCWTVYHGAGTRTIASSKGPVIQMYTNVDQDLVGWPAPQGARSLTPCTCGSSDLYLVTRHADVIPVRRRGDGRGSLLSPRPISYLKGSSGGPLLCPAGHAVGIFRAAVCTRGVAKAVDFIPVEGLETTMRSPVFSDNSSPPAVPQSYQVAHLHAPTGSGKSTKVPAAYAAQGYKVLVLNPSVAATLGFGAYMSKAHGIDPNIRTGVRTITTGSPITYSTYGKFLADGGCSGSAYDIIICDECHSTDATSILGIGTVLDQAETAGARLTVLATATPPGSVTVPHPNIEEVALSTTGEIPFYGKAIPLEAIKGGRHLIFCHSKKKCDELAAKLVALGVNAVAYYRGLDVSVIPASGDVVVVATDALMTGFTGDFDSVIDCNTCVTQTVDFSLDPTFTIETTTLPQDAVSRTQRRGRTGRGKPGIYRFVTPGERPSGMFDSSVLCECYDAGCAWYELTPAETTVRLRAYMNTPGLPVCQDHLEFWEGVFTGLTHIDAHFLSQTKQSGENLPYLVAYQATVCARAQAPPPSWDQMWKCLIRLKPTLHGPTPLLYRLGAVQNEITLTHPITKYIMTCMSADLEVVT

For orientation: EC50 means the concentration that produces a half-maximal response. Turning to `CCOC(=O)c1cnc2ccc(C)cc2c1Nc1ccc(N2CCOCC2)cc1`, the values for the EC50 in experiment [1] and in [2] were 41.5 µM (active) and 1.75 µM (active), respectively. The IC50 in [3] is > 64.6 µM (inactive); in experiment [4] it was 47.7 µM (not active); at Melanocortin receptor 4, 19 µM (inactive); at Nonstructural protein 1, 30.7 µM (active).
What is called AC50 is the midpoint of the concentration-response curve, whichever way the signal moves. With `CCOC(=O)OCC1OC(c2ccc(C(C)=O)cc2)C=CC1Oc1ccc(-c2ccccc2)cc1` (centres undefined), the AC50 at Cytochrome P450 2C9 was 5.01 µM (inconclusive).
Consider `Cc1cc(C)c(NC(=O)c2oc3ccccc3c2COc2ccccc2)c(C)c1`, for which the EC50 in the experiment on Streptococcus [5] was > 150 µM (not active); on Streptokinase A, 6.21 µM (active); with Streptococcus [6], 122 µM (active).
As a reminder, the CC50 is the concentration that lowers cell viability or growth by half. As for `CCCC/N=C/[C@]12CCC(O)CC1(O)CCC1[C@@H]2CC[C@]2(C)[C@H](C3C=CC(=O)O3)CCC12O` (some centres undefined), the EC50 was 0.372 µM (active) in experiment [7]; 0.203 µM (active) in experiment [8]; < 0.1 µM (active) in experiment [9]; 0.263 µM (active) in the experiment “cells”; 0.45 µM (active) in the experiment with BJ [12]; 0.321 µM (active) in the experiment with BJ [13]. Besides, the EC50 is 0.238 µM (active) in experiment [14]; < 0.1 µM (active) in experiment [15]; 3.01 µM (inconclusive) in the experiment with BJ [18]; 0.538 µM (active) in the experiment with BJ [19]; < 0.1 µM (active) in experiment [21]. Moreover, the AC50 was 55.4 µM (active) in experiment [10] and 2.19 µM (active) on Paired box protein Pax-8. The IC50 was > 80 µM (inactive) in [11], > 39.8 µM (not active) in [16] and < 0.05 µM (active) in the experiment on Vero [20]. The figures for the CC50 with Vero [17] and in the experiment on Vero [22] were 1.27 µM (active) and 0.96 µM (active), respectively.
As to `CCOc1ccc(/C=c2\sc3nc(-c4ccco4)nn3c2=O)cc1OCC`, the EC50 in experiment [23] and in experiment [24] was > 300 µM (not active) each time. Moreover, the IC50 on NS3 was 24.7 µM (not active); in experiment [25], 48.8 µM (inactive); in experiment [26], > 66 µM (inactive); on Estrogen receptor, > 50 µM (not active).
